Results: ChEMBL document CHEMBL5244244, “Fight against novel coronavirus: A perspective of medicinal chemists” (Eur J Med Chem, 2020)

Columns and labels:
SARS-CoV-2 [1] = assay: Antiviral activity against SARS-CoV-2 2019BetaCoV/Wuhan/WIV04/2019 infected in African green monkey Vero E6 cells assessed as inhibition of viral replication measured after 48 hrs; assay type: functional, organism-based; details: Severe acute respiratory syndrome coronavirus 2, 2019BetaCoV/Wuhan/WIV04/2019, Vero C1008, 48 h
[2] = Cytotoxicity against African green monkey Vero E6 cells assessed as reduction of cell viability measured after 48 hrs by CCK-8 assay; assay type: toxicity, cell-based, Vero C1008; details: chlorocebus sabaeus
[3] = Selectivity index, ratio of CC50 for African green monkey Vero E6 cells to EC50 for antiviral activity against SARS-CoV-2 2019BetaCoV/Wuhan/WIV04/2019; assay type: toxicity, Vero C1008; details: read-out: Selectivity Index
[4] = target: Replicase polyprotein 1ab (Severe acute respiratory syndrome coronavirus 2, UniProt P0DTD1); assay: Inhibition of SARS-CoV-2 main protease
[5] = Cytotoxicity against african green monkey Vero cells; assay type: toxicity, cell-based; details: chlorocebus sabaeus
[6] = Selectivity index, ratio of CC50 for African green monkey Vero cells to EC50 for antiviral activity against SARS-CoV-2; assay type: toxicity; details: read-out: Selectivity Index
SARS-CoV-2 [7] = assay: Antiviral activity against SARS-CoV-2 infected in African green monkey Vero cells assessed as inhibition of viral replication; assay type: functional, organism-based; details: Severe acute respiratory syndrome coronavirus 2, Vero

**Q.** Which results are given for CCN(CC)CCCC(C)Nc1ccnc2cc(Cl)ccc12 (stereo not drawn) [CHLOROQUINE]?
**A.** EC50 (SARS-CoV-2 [1]): 1.13 µM; CC50 at 48 h [2]: > 100 µM

**Q.** With Nc1nc2c(ncn2CCC(CO)CO)c(=O)[nH]1 [PENCICLOVIR] as the compound, how does the selectivity ratio [3] read?
**A.** The selectivity ratio was > 4.17.

**Q.** And the CC50 at 48 h [2]?
**A.** Its CC50 at 48 h is > 400 µM.

**Q.** Which IC50 [4] does the source give for Cc1cccc(C)c1OCC(=O)N[C@@H](Cc1ccccc1)[C@@H](O)C[C@H](Cc1ccccc1)NC(=O)[C@H](C(C)C)N1CCCNC1=O [LOPINAVIR] here?
**A.** The IC50 was 9.12 µM.

**Q.** Which CC50 [5] does the source give for N=C(N)c1ccc2cc(OC(=O)c3ccc(N=C(N)N)cc3)ccc2c1 [NAFAMOSTAT] here?
**A.** Its CC50 is > 100 µM.

**Q.** What about the selectivity ratio [6] of the same compound?
**A.** Its selectivity ratio is 4.44.

**Q.** And the EC50 (SARS-CoV-2 [7])?
**A.** The EC50 was 22.5 µM.

**Q.** Which results are given for NC(=O)c1nc(F)c[nH]c1=O?
**A.** selectivity ratio [3]: > 6.46; CC50 at 48 h [2]: > 400 µM

**Q.** With O=C(Nc1ccc([N+](=O)[O-])cc1Cl)c1cc(Cl)ccc1O [NICLOSAMIDE] as the compound, how does the EC50 (SARS-CoV-2 [1]) read?
**A.** The EC50 was 2.12 µM.

**Q.** What about the CC50 at 48 h [2] of the same compound?
**A.** Its CC50 at 48 h is > 35.5 µM.

**Q.** For NC(=O)c1ncn([C@@H]2O[C@H](CO)[C@@H](O)[C@H]2O)n1 [RIBAVIRIN], which CC50 at 48 h [2] is on record?
**A.** Its CC50 at 48 h is > 400 µM.
